Experimental data: ChEMBL document CHEMBL1201862, “PubChem BioAssay data set” (2004)
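Five compound concentrations were applied to cells in 96-well plates for 48 hours; endpoints were derived by simple linear interpolation of the resulting dose-response curve. Abbreviation: GI50, concentration required for 50% inhibition of growth.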 Activity calls are given as the source filed them. No stated cut-off is given here; in the data, active = GI50 up to about 1.1 µM and inactive = higher.

Experiments:
Assay in all cases: NCI tumour cell line growth inhibition, 48 h
[1] = tested on: SF-295
[2] = tested on: NCI-H23
[3] = tested on: OVCAR-8
[4] = tested on: DMS-273
[5] = tested on: EKVX
[6] = tested on: A498
[7] = tested on: Malme-3M
[8] = tested on: K562
[9] = tested on: HCT-15
[10] = tested on: HOP-92
[11] = tested on: 786-0
[12] = tested on: CAKI-1
[13] = tested on: SF-268
[14] = tested on: SK-OV-3
[15] = tested on: SK-MEL-28
[16] = tested on: NCI-H226
[17] = tested on: MOLT-4

SMILES: O=CC1CCCc2ccccc21 (configuration not stated)
- GI50 [1]: > 100 µM (inactive)
- GI50 [2]: > 100 µM (inactive)
- GI50 [3]: > 100 µM (inactive)
- GI50 [4]: > 100 µM (inactive)
- GI50 [5]: > 100 µM (inactive)
- GI50 [6]: > 100 µM (inactive)
- GI50 [7]: > 100 µM (inactive)
- GI50 [8]: > 60 µM (inactive)
- GI50 [9]: > 51.5 µM
- GI50 [10]: > 100 µM (inactive)
- GI50 [11]: > 100 µM (inactive)
- GI50 [12]: > 100 µM (inactive)
- GI50 [13]: > 31.6 µM (inactive)
- GI50 [14]: > 100 µM (inactive)
- GI50 [15]: > 100 µM (inactive)
- GI50 [16]: > 100 µM (inactive)
- GI50 [17]: > 100 µM (inactive)

SMILES: CN1C(c2ccccc2)CC(C)(O)CC1c1ccccc1 (configuration not stated)
- GI50 [1]: > 100 µM (inactive)
- GI50 [2]: > 100 µM (inactive)
- GI50 [3]: > 100 µM (inactive)
- GI50 [4]: > 100 µM (inactive)
- GI50 [5]: > 100 µM (inactive)
- GI50 [6]: > 100 µM (inactive)
- GI50 [7]: > 100 µM (inactive)
- GI50 [8]: > 100 µM (inactive)
- GI50 [9]: > 100 µM
- GI50 [10]: > 100 µM (inactive)
- GI50 [11]: > 100 µM (inactive)
- GI50 [12]: > 100 µM (inactive)
- GI50 [13]: > 100 µM (inactive)
- GI50 [14]: > 100 µM (inactive)
- GI50 [15]: > 100 µM (inactive)
- GI50 [16]: > 100 µM (inactive)
- GI50 [17]: > 100 µM (inactive)

SMILES: CSc1cccc(-n2c3nc(=O)n(C)c(=O)c-3nc3ccccc32)c1
- GI50 [1]: 10.8 µM (inactive)
- GI50 [2]: 4.35 µM (inactive)
- GI50 [3]: 8.83 µM (inactive)
- GI50 [4]: 1.66 µM (inactive)
- GI50 [5]: 19.3 µM (inactive)
- GI50 [6]: 12.6 µM (inactive)
- GI50 [7]: 3.04 µM (inactive)
- GI50 [8]: 12.5 µM (inactive)
- GI50 [9]: 5.02 µM
- GI50 [10]: 9.33 µM (inactive)
- GI50 [11]: 4.92 µM (inactive)
- GI50 [12]: 3.91 µM (inactive)
- GI50 [13]: 16.6 µM (inactive)
- GI50 [14]: 35.3 µM (inactive)
- GI50 [15]: 17.4 µM (inactive)
- GI50 [16]: 11.8 µM (inactive)
- GI50 [17]: 12 µM (inactive)

SMILES: O=[N+]([O-])c1cccc(/C=N\NS(=O)(=O)c2ccc(Cl)cc2)c1O
- GI50 [1]: > 100 µM (inactive)
- GI50 [2]: 44.3 µM (inactive)
- GI50 [3]: 79.4 µM (inactive)
- GI50 [4]: > 100 µM (inactive)
- GI50 [5]: > 100 µM (inactive)
- GI50 [6]: > 100 µM (inactive)
- GI50 [7]: > 100 µM (inactive)
- GI50 [8]: 60.1 µM (inactive)
- GI50 [9]: 52.5 µM
- GI50 [10]: 42.6 µM (inactive)
- GI50 [11]: > 100 µM (inactive)
- GI50 [12]: > 100 µM (inactive)
- GI50 [13]: > 100 µM (inactive)
- GI50 [14]: > 100 µM (inactive)
- GI50 [15]: 46.9 µM (inactive)
- GI50 [17]: 47.5 µM (inactive)

SMILES: O=C(c1ccccc1)[C@H]1Nc2cnccc2C2c3ccccc3CC21 (some centres not stated)
- GI50 [1]: 18.2 µM (inactive)
- GI50 [2]: 8.51 µM (inactive)
- GI50 [3]: 8.24 µM (inactive)
- GI50 [4]: 26.6 µM (inactive)
- GI50 [5]: 19.9 µM (inactive)
- GI50 [6]: 25.9 µM (inactive)
- GI50 [7]: 12.9 µM (inactive)
- GI50 [8]: 3.14 µM (inactive)
- GI50 [9]: 8.95 µM
- GI50 [10]: 13.1 µM (inactive)
- GI50 [11]: 12.8 µM (inactive)
- GI50 [12]: 24.9 µM (inactive)
- GI50 [13]: 7.35 µM (inactive)
- GI50 [14]: 20.2 µM (inactive)
- GI50 [15]: 14.1 µM (inactive)
- GI50 [16]: 4.26 µM (inactive)
- GI50 [17]: 2.99 µM (inactive)

SMILES: C/C(=N\N(C)C)c1sc(-n2nc(-c3ccccc3)cc2-c2ccccc2)nc1C
- GI50 [1]: 51.2 µM (inactive)
- GI50 [2]: > 100 µM (inactive)
- GI50 [3]: > 100 µM (inactive)
- GI50 [4]: > 100 µM (inactive)
- GI50 [5]: 8.22 µM (inactive)
- GI50 [6]: > 100 µM (inactive)
- GI50 [7]: > 100 µM (inactive)
- GI50 [8]: > 100 µM (inactive)
- GI50 [9]: > 100 µM
- GI50 [10]: 61.9 µM (inactive)
- GI50 [11]: > 100 µM (inactive)
- GI50 [12]: > 100 µM (inactive)
- GI50 [13]: > 100 µM (inactive)
- GI50 [14]: > 100 µM (inactive)
- GI50 [15]: > 100 µM (inactive)
- GI50 [16]: > 100 µM (inactive)
- GI50 [17]: 84.3 µM (inactive)

SMILES: NNC(=O)CCC(=O)Nc1ccc(Cl)cc1Cl
- GI50 [1]: > 100 µM (inactive)
- GI50 [2]: > 100 µM (inactive)
- GI50 [3]: > 100 µM (inactive)
- GI50 [4]: 31.8 µM (inactive)
- GI50 [6]: > 100 µM (inactive)
- GI50 [7]: > 100 µM (inactive)
- GI50 [8]: 19.1 µM (inactive)
- GI50 [9]: 66.2 µM
- GI50 [10]: > 100 µM (inactive)
- GI50 [11]: > 100 µM (inactive)
- GI50 [12]: > 100 µM (inactive)
- GI50 [13]: > 100 µM (inactive)
- GI50 [14]: > 100 µM (inactive)
- GI50 [15]: > 100 µM (inactive)
- GI50 [16]: > 100 µM (inactive)
- GI50 [17]: > 100 µM (inactive)
